# Assay results as given in patent US8415342B2, “Besifloxacin ophthalmic composition for the treatment or control of infection” (Bausch & Lomb Incorporated, priority 2008, dated 2013).
# Read-outs that look alike come from different tables or passages of the source.
# What was measured:
# Assay type in all cases: cell-based
# Staphylococcus hominis = assay: MIC, CLSI broth microdilution, clinical isolates; settings: Staphylococcus hominis (N = 50)
# [1] = test system: Staphylococcus haemolyticus; assay: MIC, CLSI broth microdilution, clinical isolates; settings: Staphylococcus haemolyticus (N = 101)
# Legionella pneumophila = assay: microbe, parasite or virus in culture
# [2] = test system: Staphylococcus epidermidis; assay: MIC, CLSI broth microdilution, clinical isolates; settings: for MIC50: Staphylococcus epidermidis
# Klebsiella oxytoca = assay: MIC, CLSI broth microdilution, clinical isolates; settings: Klebsiella oxytoca (N = 50)
# Morganella morganii = assay: MIC, CLSI broth microdilution, clinical isolates; settings: Morganella morganii (N = 51)
# [3] = test system: Lancefield group C, F, G streptococci; assay: MIC, CLSI broth microdilution, clinical isolates; settings: G streptococci (N = 50)
# Moraxella catarrhalis = assay: MIC, CLSI broth microdilution, clinical isolates; settings: Moraxella catarrhalis (N = 101)
# Viridans streptococci = assay: MIC, CLSI broth microdilution, clinical isolates; settings: Viridans streptococci (N = 156)
# [4] = test system: Staphylococcus saprophyticus; assay: MIC, CLSI broth microdilution, clinical isolates; settings: Staphylococcus saprophyticus (N = 101)
# Citrobacter koseri = assay: MIC, CLSI broth microdilution, clinical isolates; settings: Citrobacter koseri (N = 100)
# [5] = test system: Staphylococcus lugdunensis; assay: MIC, CLSI broth microdilution, clinical isolates; settings: Staphylococcus lugdunensis (N = 15)
# Streptococcus pyogenes = assay: MIC, CLSI broth microdilution, clinical isolates; settings: Streptococcus pyogenes (N = 101)
# Haemophilus influenzae = assay: MIC, CLSI broth microdilution, clinical isolates; settings: for MIC50 / MIC90: Haemophilus influenzae
# Streptococcus pneumoniae = assay: MIC, CLSI broth microdilution, clinical isolates
# Staphylococcus aureus = assay: MIC, CLSI broth microdilution, clinical isolates; settings: for MIC50 / MIC90: Staphylococcus aureus
# Streptococcus agalactiae = assay: MIC, CLSI broth microdilution, clinical isolates; settings: Streptococcus agalactiae (N = 100)
# Staphylococcus warneri = assay: MIC, CLSI broth microdilution, clinical isolates; settings: Staphylococcus warneri (N = 50)
# [6] = Staphylococcus epidermidis (CNS, N = 6)
# [7] = Staphylococcus epidermidis (CS, N = 9)
# [8] = Staphylococcus epidermidis (MSSE, N = 6)
# [9] = Staphylococcus epidermidis (all phenotypes, N = 15)
# [10] = Haemophilus influenzae (all phenotypes, N = 40)
# [11] = Haemophilus influenzae (bla negative, N = 24)
# [12] = Haemophilus influenzae (bla positive, N = 16)
# [13] = Streptococcus pneumoniae (PISP, N = 2)
# [14] = Streptococcus pneumoniae (PRSP, N = 2)
# [15] = Streptococcus pneumoniae (PSSP, N = 31)
# [16] = Streptococcus pneumoniae (all phenotypes, N = 35)
# [17] = Staphylococcus aureus (CNS, N = 16)
# [18] = Staphylococcus aureus (CS, N = 14)
# [19] = Staphylococcus aureus (all phenotypes, N = 30)
# [20] = MRSA, Staphylococcus aureus (MRSA, N = 11)
# [21] = MSSA, Staphylococcus aureus (MSSA, N = 19)
smiles,measurement,setting,value
C[C@H]1COc2c(N3CCN(C)CC3)c(F)cc3c(=O)c(C(=O)O)cn1c23 [Levofloxacin],% S,Staphylococcus hominis,30.0%
same,MIC50,Staphylococcus hominis,8 µg/mL
same,MIC90,Staphylococcus hominis,> 8 µg/mL
same,% S,[1],39.6%
same,MIC50,[1],4 µg/mL
same,MIC90,[1],> 8 µg/mL
same,MIC50,Legionella pneumophila; Legionella pneumophila,0.03 µg/mL
same,MIC90,Legionella pneumophila; Legionella pneumophila,0.03 µg/mL
same,MIC Range,Legionella pneumophila; Legionella pneumophila (N = 50),0.015 to 0.06 µg/mL
same,% S,[2]; [6],0.0%
same,% S,[2]; [7],100.0%
same,MIC Range,[2]; [7],0.12-0.12 μg/mL
same,% S,"[2]; Staphylococcus epidermidis (MRSE, N = 9)",44.4%
same,% S,[2]; [8],83.3%
same,MIC Range,[2]; [8],0.12 to 8 µg/mL
same,% S,[2]; [9],60.0%
same,MIC90,[2]; [9],> 8 µg/mL
same,MIC50,"[2]; MRSE, Staphylococcus epidermidis (MRSE, N = 9)",2 µg/mL
same,MIC50,[2]; [6],8 µg/mL
same,MIC50,[2]; [7],0.12 µg/mL
same,MIC50,[2]; [8],0.12 µg/mL
same,MIC50,[2]; [9],0.12 µg/mL
same,% S,Klebsiella oxytoca,90.0%
same,MIC50,Klebsiella oxytoca,0.03 µg/mL
same,MIC90,Klebsiella oxytoca,0.5 µg/mL
same,MIC Range,Klebsiella oxytoca,0.015 to 8 µg/mL
same,% S,Morganella morganii,76.5%
same,MIC50,Morganella morganii,0.06 µg/mL
same,MIC90,Morganella morganii,8 µg/mL
same,% S,[3],98.0%
same,MIC Range,[3],0.12 to 8 µg/mL
same,MIC50,[3]; read-out: MIC50,0.5 µg/mL
same,MIC90,[3]; read-out: MIC90,0.5 µg/mL
same,% S,Moraxella catarrhalis,100.0%
same,MIC50,Moraxella catarrhalis,0.015 µg/mL
same,MIC90,Moraxella catarrhalis,0.03 µg/mL
same,MIC Range,Moraxella catarrhalis,0.015 to 0.5 µg/mL
same,% S,Viridans streptococci,95.5%
same,MIC50,Viridans streptococci; read-out: MIC50,1 µg/mL
same,MIC90,Viridans streptococci; read-out: MIC90,1 µg/mL
same,% S,[4],100.0%
same,MIC50,[4],0.5 µg/mL
same,MIC90,[4],0.5 µg/mL
same,MIC Range,[4],0.06 to 0.5 µg/mL
same,% S,Citrobacter koseri,99.0%
same,MIC50,Citrobacter koseri,0.03 µg/mL
same,MIC90,Citrobacter koseri,0.12 µg/mL
same,% S,[5],66.7%
same,MIC50,[5],0.25 µg/mL
same,MIC90,[5],> 8 µg/mL
same,% S,Streptococcus pyogenes,100.0%
same,MIC Range,Streptococcus pyogenes,0.25 to 2 µg/mL
same,MIC50,Streptococcus pyogenes; read-out: MIC50,0.5 µg/mL
same,MIC90,Streptococcus pyogenes; read-out: MIC90,0.5 µg/mL
same,% S,Haemophilus influenzae; [10],100.0%
same,MIC Range,Haemophilus influenzae; [10],0.008 to 0.015 µg/mL
same,% S,Haemophilus influenzae; [11],100.0%
same,MIC Range,Haemophilus influenzae; [11],0.008 to 0.015 µg/mL
same,% S,Haemophilus influenzae; [12],100.0%
same,MIC Range,Haemophilus influenzae; [12],0.015-0.015 μg/mL
same,MIC50,Haemophilus influenzae; [10],0.015 µg/mL
same,MIC90,Haemophilus influenzae; [10],0.015 µg/mL
same,MIC50,Haemophilus influenzae; [11],0.015 µg/mL
same,MIC90,Haemophilus influenzae; [11],0.015 µg/mL
same,MIC50,Haemophilus influenzae; [12],0.015 µg/mL
same,MIC90,Haemophilus influenzae; [12],0.015 µg/mL
same,% S,Streptococcus pneumoniae; [13],100.0%
same,MIC Range,Streptococcus pneumoniae; [13],0.5 to 1 µg/mL
same,% S,Streptococcus pneumoniae; [14],100.0%
same,MIC Range,Streptococcus pneumoniae; [14],0.5 to 1 µg/mL
same,% S,Streptococcus pneumoniae; [15],96.8%
same,MIC50,Streptococcus pneumoniae; [15],0.5 µg/mL
same,MIC90,Streptococcus pneumoniae; [15],1 µg/mL
same,MIC Range,Streptococcus pneumoniae; [15],0.5 to 8 µg/mL
same,% S,Streptococcus pneumoniae; [16],97.1%
same,MIC Range,Streptococcus pneumoniae; [16],0.5 to 8 µg/mL
same,MIC50,"Streptococcus pneumoniae; Streptococcus pneumoniae (all phenotypes, N = 35), read-out: MIC50",0.5 µg/mL
same,MIC90,"Streptococcus pneumoniae; Streptococcus pneumoniae (all phenotypes, N = 35), read-out: MIC90",1 µg/mL
same,% S,Staphylococcus aureus; [17],12.5%
same,% S,Staphylococcus aureus; [18],92.9%
same,MIC Range,Staphylococcus aureus; [18],0.06 to 2 µg/mL
same,% S,"Staphylococcus aureus; Staphylococcus aureus (MRSA, N = 11)",18.2%
same,% S,"Staphylococcus aureus; Staphylococcus aureus (MSSA, N = 19)",68.4%
same,% S,Staphylococcus aureus; [19],50.0%
same,MIC50,Staphylococcus aureus; [20],4 µg/mL
same,MIC90,Staphylococcus aureus; [20],> 8 µg/mL
same,MIC50,Staphylococcus aureus; [21],0.25 µg/mL
same,MIC90,Staphylococcus aureus; [21],4 µg/mL
same,MIC50,Staphylococcus aureus; [17],4 µg/mL
same,MIC90,Staphylococcus aureus; [17],> 8 µg/mL
same,MIC50,Staphylococcus aureus; [18],0.12 µg/mL
same,MIC90,Staphylococcus aureus; [18],0.25 µg/mL
same,MIC50,Staphylococcus aureus; [19],1 µg/mL
same,MIC90,Staphylococcus aureus; [19],> 8 µg/mL
same,% S,Streptococcus agalactiae,98.0%
same,MIC Range,Streptococcus agalactiae,0.25 to 4 µg/mL
same,MIC50,Streptococcus agalactiae; read-out: MIC50,0.5 µg/mL
same,MIC90,Streptococcus agalactiae; read-out: MIC90,1 µg/mL
same,% S,Staphylococcus warneri,76.0%
same,MIC50,Staphylococcus warneri,0.12 µg/mL
same,MIC90,Staphylococcus warneri,> 8 µg/mL
